Assay results as given in US20250236616A1, “IMMUNOMODULATING AZALIDES” (Zoetis Services LLC, priority 2021, published 2025).

Experiments:
Type in all cases: cell-based
TNF-α = test: Whole bovine blood assay, LPS-induced TNF-α; conditions: Bos taurus, fresh whole bovine blood, LPS stimulant; top drug concentration 250 μM
How it was run: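 Fresh heparinized bovine whole blood was preincubated with compound 4 h at 37 °C, then stimulated with LPS (final 1 μg/mL) for 18 h at 37 °C. Plasma TNF-α was quantified by MSD U-Plex chemiluminescent immunoassay, normalized to total protein (BCA), and IC50 taken for LPS-induced TNF-α inhibition.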

IL-6 = test: Whole bovine blood assay, LPS-induced IL-6; conditions: Bos taurus, fresh whole bovine blood, LPS stimulant; top drug concentration 250 μM
IL-1β = test: Whole bovine blood assay, LPS-induced IL-1β (inhibition / overstimulation); conditions: Bos taurus, 18 h, drug concentration giving overstimulation (OS) of LPS-induced IL-1β, top concentration 250 μM
How it was run: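 IL-1β was quantified by MSD U-Plex chemiluminescence in plasma and normalized to BCA total protein. Bovine blood was pretreated 4 h at 37 °C with compound dilutions before 18 h LPS challenge (1 μg/mL final). Rising IL-1β at high concentrations was recorded as overstimulation.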

Compound | IC50 (TNF-α) [µM] | IC50 (IL-6) [µM] | minimal effective concentration (IL-1β) [µM]
CC[C@H]1OC(=O)[C@H](C)[C@@H](O)[C@H](C)[C@@H](O[C@@H]2O[C@H](C)C[C@H](N(C)S(=O)(=O)c3ccccc3)[C@H]2Oc2ccc(OC)cc2)[C@](C)(O)C[C@@H](C)CN[C@H](C)[C@@H](O)[C@]1(C)O [Example A-9, N-((2S,3R,4S,6R)-2-(((2R,3S,4R,5R,8R,10R,11R,12S,13S,14R)-2-ethyl-3,4,10,13-tetrahydroxy-3,5,8,10, 12, 14-hexamethyl-15-oxo-1-oxa-6-azacyclopentadecan-11-yl)oxy)-3-(4-methoxyphenoxy)-6-methyltetrahydro-2H-pyran-4-yl)-N-methylbenzenesulfonamide] | 4 | 21 | 16
CCCNC[C@]1(O)[C@H](C)O[C@@H](O[C@H]2[C@H](C)[C@@H](O[C@@H]3O[C@H](C)C[C@H](N(C)S(=O)(=O)c4ccc(C)cc4)[C@H]3O)[C@](C)(O)C[C@@H](C)CN[C@H](C)[C@@H](O)[C@](C)(O)[C@@H](CC)OC(=O)[C@@H]2C)C[C@@]1(C)OC [Example B-26, N-((2S,3R,4S,6R)-2-(((2R,3S,4R,5R,8R,10R,11R,12S,13S,14R)-2-ethyl-3,4,10-trihydroxy-13-(((2R,4R,5S,6S)-5-hydroxy-4-methoxy-4,6-dimethyl-5-((propylamino)methyl)tetrahydro-2H-pyran-2-yl)oxy)-3,5,8,10,12,14-hexamethyl-15-oxo-1-oxa-6-azacyclopentadecan-11-yl)oxy)-3-hydroxy-6-methyltetrahydro-2H-pyran-4-yl)-N,4-dimethylbenzenesulfonamide] | 20 |  | 16
CCCNC[C@]1(O)[C@H](C)O[C@@H](O[C@H]2[C@H](C)[C@@H](O[C@@H]3O[C@H](C)C[C@H](N(C)S(=O)(=O)Nc4ccc(C(F)(F)F)cc4)[C@H]3O)[C@](C)(O)C[C@@H](C)CN[C@H](C)[C@@H](O)[C@](C)(O)[C@@H](CC)OC(=O)[C@@H]2C)C[C@@]1(C)OC [Example B-50, (2R,3S,4R,5R,8R,10R,11R,12S,13S, 14R)-2-ethyl-3,4,10-trihydroxy-13-[(2R,4R,5S,6S)-5-hydroxy-4-methoxy-4,6-dimethyl-5-(propylaminomethyl)oxan-2-yl]oxy-11-[(2S,3R,4S,6R)-3-hydroxy-6-methyl-4-[methyl-[[4-(trifluoromethyl)phenyl]sulfamoyl]amino]oxan-2-yl]oxy-3,5,8, 10, 12, 14-hexamethyl-15-oxo-1-oxa-6-azacyclopentadecane] |  | 49 | 6
CC[C@H]1OC(=O)[C@H](C)[C@@H](O[C@H]2C[C@@](C)(OC)[C@](O)(CN3CCCCC3)[C@H](C)O2)[C@H](C)[C@@H](O[C@@H]2O[C@H](C)C[C@H](N(C)S(=O)(=O)c3ccc(Cl)cc3)[C@H]2O)[C@](C)(O)C[C@@H](C)CN[C@H](C)[C@@H](O)[C@]1(C)O [Example C-4, 4-chloro-N-((2S,3R,4S,6R)-2-(((2R,3S,4R,5R,8R,10R,11R,12S,13S,14R)-2-ethyl-3,4,10-trihydroxy-13-(((2R,4R,5S,6S)-5-hydroxy-4-methoxy-4,6-dimethyl-5-(piperidin-1-ylmethyl)tetrahydro-2H-pyran-2-yl)oxy)-3,5,8, 10, 12, 14-hexamethyl-15-oxo-1-oxa-6-azacyclopentadecan-11-yl)oxy)-3-hydroxy-6-methyltetrahydro-2H-pyran-4-yl)-N-methylbenzenesulfonamide] | 5 |  | 16
CC[C@H]1OC(=O)[C@H](C)[C@@H](O[C@H]2C[C@@](C)(OC)[C@](O)(CN3CCCCC3)[C@H](C)O2)[C@H](C)[C@@H](O[C@@H]2O[C@H](C)C[C@H](N(C)S(=O)(=O)Nc3ccc(C(F)(F)F)cc3)[C@H]2O)[C@](C)(O)C[C@@H](C)CN[C@H](C)[C@@H](O)[C@]1(C)O [Example C-11, (2R,3S,4R,5R,8R,10R,11R,12S, 13S, 14R)-2-ethyl-3,4, 10-trihydroxy-13-[(2R,4R,5S,6S)-5-hydroxy-4-methoxy-4,6-dimethyl-5-(piperidin-1-ylmethyl)oxan-2-yl]oxy-11-[(2S,3R,4S,6R)-3-hydroxy-6-methyl-4-[methyl-[[4-(trifluoromethyl)phenyl]sulfamoyl]amino]oxan-2-yl]oxy-3,5,8, 10, 12, 14-hexamethyl-15-oxo-1-oxa-6-azacyclopentadecane] | 17 | 13 | 
CCCNC[C@]1(O)[C@H](C)O[C@@H](O[C@H]2[C@H](C)[C@@H](O[C@@H]3O[C@H](C)C[C@H](NC)[C@H]3O)[C@](C)(O)C[C@@H](C)CN[C@H](C)[C@@H](O)[C@](C)(O)[C@@H](CC)OC(=O)[C@@H]2C)C[C@@]1(C)OC [Example M9, (2R,3S,4R,5R,8R,10R,11R,12S,13S,14R)-2-ethyl-3,4, 10-trihydroxy-13-(((2R,4R,5S,6S)-5-hydroxy-4-methoxy-4,6-dimethyl-5-((propylamino)methyl)-tetrahydro-2H-pyran-2-yl)oxy)-11-(((2S,3R,4S,6R)-3-hydroxy-6-methyl-4-(methylamino)tetrahydro-2H-pyran-2-yl)oxy)-3,5,8,10,12,14-hexamethyl-1-oxa-6-azacyclopentadecan-15-one] | 250 |  | 
